Read-outs that look alike come from different tables or passages of the source. Each block holds one molecule with its values, some of them ahead of it.
Assays:
DOHH-2 cell strain = experiment: Tumor cell proliferation inhibition assay (CellTiter-Glo), DOHH-2; type: cell-based; settings: Homo sapiens, 120 h, DOHH-2 cells, 5-day treatment
Protocol: After the HCT116-MTAP-knockout (−/−) cell strain, the HCT116-MTAP wild-type(+/+)-cell strain, the DOHH-2 cell strain, or the Hut-78 cell strain was treated with the test compound for 5 days, the ATP level was measured using a CellTiter-Glo kit of Promega to evaluate the inhibition of the test compound against the growth of the tumor cell strain.
In the present application, the HCT116-MTAP-knockout (−/−) cell strain, the HCT116-MTAP wild-type (+/+)-cell strain, the DOHH-2 cell strain, or the Hut-78 cell strain was seeded into a 96-well cell culture plate at an appropriate cell density. After 24 h, the cells were treated using the test compounds diluted 1:3 fold at the highest concentration of 10 μM for 10 gradients, and a DMSO treatment group was set up separately. The cells were cultured in a 37° C./5% CO2 incubator for 5 days.

Hut-78 cell strain = experiment: Tumor cell proliferation inhibition assay (CellTiter-Glo), Hut-78; type: cell-based; settings: Homo sapiens, HuT78, 120 h, Hut-78 cells, 5-day treatment
Outline: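 Cells were seeded, left 24 h, then exposed to test compounds in a 10-point, 1:3 dilution series from 10 μM top concentration alongside a DMSO group. After 5 days at 37° C./5% CO2, growth inhibition was judged from ATP level by CellTiter-Glo luminescence.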

[1] = target: MAT2A recombinant protein (Homo sapiens, UniProt P31153); experiment: MAT2A inhibitory activity (malachite green colorimetric enzyme assay); type: biochemical
Outline: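 Recombinant human MAT2A with L-methionine and ATP in 50 mM HEPES pH 7.5, 50 mM KCl, 10 mM MgCl2, 10 mM DTT, 60 min at room temperature. Phosphate released detected by malachite green reagent (15 min) at 630 nm. Ten-point 1:3 series from 1000 nM final; IC50 by variable-slope non-linear regression.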

[2] = test system: SDMA in human colon cancer cell line HCT116; experiment: Cell symmetric dimethylarginine (SDMA) test, In-cell Western, HCT116 (MTAP wild-type); type: cell-based; settings: Homo sapiens, HCT-116, 96 h
Outline: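 HCT116 cells treated 4 days at 37° C with compound, top concentration 6 μM, 1:4 dilutions, 6 points, versus DMSO. Fixed cells stained for SDMA with DRAQ5 normalisation; 800/700 nm ratio after background subtraction fitted by non-linear regression for IC50.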

[3] = test system: SDMA in HCT116-MTAP-knockout cell line; experiment: Cell symmetric dimethylarginine (SDMA) test, In-cell Western, HCT116-MTAP-knockout; type: cell-based; settings: Homo sapiens, 96 h
[4] = IC50 score, read-out: Tumor cell 5-day relative growth inhibition (DOHH-2) (nM), score
[5] = IC50 value, read-out: Tumor cell 5-day relative growth inhibition (DOHH-2)
[6] = IC50 score, read-out: Tumor cell 5-day relative growth inhibition (Hut-78) (nM), score
[7] = IC50 value, read-out: Tumor cell 5-day relative growth inhibition (Hut-78)
[8] = IC50 score class, read-out: MAT2A Inhibition (score)
[9] = IC50 score class, read-out: Cell 96 h SDMA Inhibition (HCT116-MTAP+/+) (score)
[10] = read-out: Cell 96 h SDMA inhibition (HCT116-MTAP+/+)
[11] = IC50 score class, read-out: Cell 96 h SDMA Inhibition (HCT116-MTAP−/−) (score)
[12] = read-out: Cell 96 h SDMA Inhibition (HCT116-MTAP−/−)

MAT2A recombinant protein, sequence (P31153 whole entry): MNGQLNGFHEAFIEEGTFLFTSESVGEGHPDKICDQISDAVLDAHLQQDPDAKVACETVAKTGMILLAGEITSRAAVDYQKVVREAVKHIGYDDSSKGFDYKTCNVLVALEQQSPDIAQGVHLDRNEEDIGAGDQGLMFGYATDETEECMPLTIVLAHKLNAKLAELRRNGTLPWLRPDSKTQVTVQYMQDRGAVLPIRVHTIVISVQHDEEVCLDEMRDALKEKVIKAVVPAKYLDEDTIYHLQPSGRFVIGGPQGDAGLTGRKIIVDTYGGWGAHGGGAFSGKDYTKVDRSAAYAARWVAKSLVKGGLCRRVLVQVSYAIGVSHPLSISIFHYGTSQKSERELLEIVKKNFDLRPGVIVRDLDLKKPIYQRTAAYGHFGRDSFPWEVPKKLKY

IC50 (DOHH-2 cell strain; [4]): < 500 nM
IC50 (DOHH-2 cell strain; [5]): 400 nM
IC50 (Hut-78 cell strain; [6]): < 500 nM
IC50 (Hut-78 cell strain; [7]): 33.1 nM
IC50 [1, 8]: < 100 nM
IC50 ([1]; read-out: MAT2A Inhibition): 32.7 nM
IC50 [2, 9]: 200 to 1000 nM
IC50 [2, 10]: 230 nM
IC50 [3, 11]: < 200 nM
IC50 [3, 12]: 7.6 nM
Compound: CCn1cc2c(n1)c(=O)n(-c1cccnc1C)c1cc(Cl)ccc21 [Compound B30]

IC50 (DOHH-2 cell strain; [4]): < 500 nM
IC50 (DOHH-2 cell strain; [5]): 390 nM
IC50 (Hut-78 cell strain; [6]): < 500 nM
IC50 (Hut-78 cell strain; [7]): 87.8 nM
IC50 [1, 8]: < 100 nM
IC50 ([1]; read-out: MAT2A Inhibition): 43.1 nM
IC50 [2, 9]: 200 to 1000 nM
IC50 [2, 10]: 396 nM
IC50 [3, 11]: < 200 nM
IC50 [3, 12]: 32.8 nM
Compound: Cc1ncccc1-n1c(=O)c2nn(C)cc2c2ccc(OC(F)(F)F)cc21 [Compound B77]

IC50 (DOHH-2 cell strain; [4]): < 500 nM
IC50 (DOHH-2 cell strain; [5]): 340 nM
IC50 [1, 8]: < 100 nM
IC50 ([1]; read-out: MAT2A Inhibition): 44.3 nM
IC50 [2, 9]: 200 to 1000 nM
IC50 [2, 10]: 261 nM
IC50 [3, 11]: < 200 nM
IC50 [3, 12]: 19.3 nM
Compound: Cc1ncccc1-n1c(=O)c2nn(C)cc2c2ccc(C3CC3)cc21 [Compound B74]

IC50 (DOHH-2 cell strain; [4]): 500 to 2000 nM
IC50 (DOHH-2 cell strain; [5]): 654 nM
IC50 (Hut-78 cell strain; [6]): < 500 nM
IC50 (Hut-78 cell strain; [7]): 140 nM
IC50 [1, 8]: < 100 nM
IC50 ([1]; read-out: MAT2A Inhibition): 27.8 nM
IC50 [2, 9]: 200 to 1000 nM
IC50 [2, 10]: 861 nM
IC50 [3, 11]: < 200 nM
IC50 [3, 12]: 54.3 nM
Compound: Cn1cc2c(n1)c(=O)n(-c1cccc(O)c1)c1cc(C(F)(F)F)ccc21 [Compound B150]

Further lines, the molecule ahead of its results:

Compound: CCn1cc2c(n1)c(=O)n(-c1c(C)ccnc1C)c1cc(Cl)ccc21 [Compound B31]
IC50 (DOHH-2 cell strain; [4]): ≥ 2000 nM
IC50 (DOHH-2 cell strain; [5]): 8080 nM
IC50 [1, 8]: < 100 nM
IC50 ([1]; read-out: MAT2A Inhibition): 65.3 nM
IC50 [2, 9]: 200 to 1000 nM
IC50 [2, 10]: 971 nM
IC50 [3, 11]: < 200 nM
IC50 [3, 12]: 169 nM

Compound: CC(C)n1cc2c(n1)c(=O)n(-c1cccnc1)c1cc(Cl)ccc21 [Compound B39]
IC50 (DOHH-2 cell strain; [4]): ≥ 2000 nM
IC50 (DOHH-2 cell strain; [5]): 3790 nM
IC50 (Hut-78 cell strain; [6]): < 500 nM
IC50 (Hut-78 cell strain; [7]): 98.6 nM
IC50 [2, 9]: 1000 to 3000 nM
IC50 [2, 10]: 1530 nM
IC50 [3, 11]: 200 to 1000 nM
IC50 [3, 12]: 586 nM

Compound: Cn1nc2c(=O)n(-c3cccnc3)c3cc(Cl)ccc3c2c1C(F)F [Compound B27]
IC50 (DOHH-2 cell strain; [4]): ≥ 2000 nM
IC50 (DOHH-2 cell strain; [5]): 11700 nM
IC50 [1, 8]: < 100 nM
IC50 ([1]; read-out: MAT2A Inhibition): 77 nM
IC50 [2, 9]: > 3000 nM
IC50 [2, 10]: > 3000 nM
IC50 [3, 11]: 1000 to 3000 nM
IC50 [3, 12]: 1280 nM

Compound: Cn1cc2c(n1)c(=O)n(-c1ccc3cn[nH]c3c1)c1cc(Cl)ccc21 [Compound B57]
IC50 (DOHH-2 cell strain; [4]): ≥ 2000 nM
IC50 (DOHH-2 cell strain; [5]): 2040 nM
IC50 (Hut-78 cell strain; [6]): ≥ 2000 nM
IC50 (Hut-78 cell strain; [7]): 2130 nM
IC50 [1, 8]: < 100 nM
IC50 ([1]; read-out: MAT2A Inhibition): 54.3 nM
IC50 [2, 9]: > 3000 nM
IC50 [2, 10]: > 3000 nM
IC50 [3, 11]: 200 to 1000 nM
IC50 [3, 12]: 579 nM

Compound: O=c1c2nn(CC(F)F)cc2c2ccc(Cl)cc2n1-c1cccnc1 [Compound B40]
IC50 (DOHH-2 cell strain; [4]): ≥ 2000 nM
IC50 (DOHH-2 cell strain; [5]): 2400 nM
IC50 (Hut-78 cell strain; [6]): 500 to 2000 nM
IC50 (Hut-78 cell strain; [7]): 1290 nM
IC50 [2, 9]: > 3000 nM
IC50 [2, 10]: 4470 nM
IC50 [3, 11]: 200 to 1000 nM
IC50 [3, 12]: 376 nM

Compound: CCn1cc2c(n1)c(=O)n(-c1cnccc1C)c1cc(Cl)ccc21 [Compound B51]
IC50 (DOHH-2 cell strain; [4]): ≥ 2000 nM
IC50 (DOHH-2 cell strain; [5]): 7690 nM
IC50 [1, 8]: < 100 nM
IC50 ([1]; read-out: MAT2A Inhibition): 40.8 nM
IC50 [2, 9]: > 3000 nM
IC50 [2, 10]: > 10000 nM
IC50 [3, 11]: > 3000 nM
IC50 [3, 12]: 8520 nM

From patent publication US20240391923A1, “METHIONINE ADENOSYLTRANSFERASE 2A INHIBITOR FOR TREATING MTAP DELETION-TYPE CANCER” (SUZHOU GENHOUSE BIO CO., LTD., priority 2022, published 2024)
